According to US6737383B1, “Herbicidal oxadiazolidines” (priority 1999, dated 2004):

Experiments:
[1] = system: giant foxtail; test: Test B pre/postemergence giant foxtail; assay type: in vivo, Setaria faberii
Method in brief: (§1)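 Response is a visual 0-to-10 score relative to untreated plants, where 0 means no effect and 10 means complete control, taken twelve to sixteen days after application. Treatments went onto soil at planting and onto foliage of 1- to 4-leaf plants, using a surfactant-containing non-phytotoxic solvent.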

[2] = system: smallflower flatsedge; test: Test B flood test smallflower flatsedge; assay type: in vivo, Cyperus difformis
Method in brief: (§2)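 Read-out is a visual response score from 0 (no effect) to 10 (complete control), assigned by comparison with untreated controls. Treatment was applied at the 2-leaf stage, and plants stayed in the greenhouse for twelve to sixteen days before scoring.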

[3] = system: wild oat; test: Test B pre/postemergence wild oat; assay type: in vivo, Avena fatua
Method in brief: as §1

[4] = system: corn; test: Test B pre/postemergence corn; assay type: in vivo, Zea mays
Method in brief: as §1

[5] = system: bamyardgrass; test: Test B flood test barnyardgrass; assay type: in vivo, Echinochloa crus-galli
Method in brief: as §2

[6] = system: velvetleaf; test: Test B pre/postemergence velvetleaf; assay type: in vivo, Abutilon theophrasti
Method in brief: as §1

[7] = system: purple nutsedge; test: Test B pre/postemergence purple nutsedge; assay type: in vivo, Cyperus rotundus
Method in brief: as §1

[8] = system: duck salad; test: Test B flood test duck salad; assay type: in vivo, Heteranthera limosa
Method in brief: as §2

[9] = system: blackgrass; test: Test B pre/postemergence blackgrass; assay type: in vivo, Alopecurus myosuroides
Method in brief: as §1

[10] = system: rice; test: Test B flood test rice; assay type: in vivo, Oryza sativa
Method in brief: as §2

[11] = system: surinam grass; test: Test B pre/postemergence surinam grass; assay type: in vivo, Brachiaria decumbens
Method in brief: as §1

[12] = system: crabgrass; test: Test B pre/postemergence crabgrass; assay type: in vivo, Digitaria sanguinalis
Method in brief: as §1

[13] = system: sugar beet; test: Test B pre/postemergence sugar beet; assay type: in vivo, Beta vulgaris
Method in brief: as §1

[14] = system: rape; test: Test B pre/postemergence rape; assay type: in vivo, Brassica napus
Method in brief: as §1

[15] = system: wheat; test: Test B pre/postemergence wheat; assay type: in vivo, Triticum aestivum
Method in brief: as §1

[16] = system: bedstraw; test: Test B pre/postemergence bedstraw; assay type: in vivo, Galium aparine
Method in brief: as §1

[17] = Postemergence, Rate 62 g/ha, scale of 0 to 10, 0 is no effect, 10 is complete control
[18] = Postemergence, Rate 125 g/ha, scale 0 to 10, 0 is no effect, 10 is complete control
[19] = Postemergence, Rate 500 g/ha, scale 0 to 10, 0 is no effect, 10 is complete control
[20] = Preemergence, Rate 62 g/ha, scale 0 to 10 (0 no effect, 10 complete control)
[21] = Preemergence, Rate 125 g/ha, scale 0 to 10, 0 is no effect, 10 is complete control
[22] = Preemergence, Rate 500 g/ha, scale of 0 to 10 where 0 is no effect and 10 is complete control
[23] = Rate 250 g/ha, Postemergence, scale of 0 to 10 where 0 is no effect and 10 is complete control
[24] = Rate 62 g/ha, flood test species, Pre-emergence, visual evaluation after twelve to sixteen days
[25] = Rate 125 g/ha, under heading Pre-emergence, flood test species, visual evaluation after twelve to sixteen days
[26] = Rate 250 g/ha, Pre-emergence (flood test species), scale 0 to 10, 0 is no effect, 10 is complete control
[27] = Rate 500 g/ha, Pre-emergence section of Table B, 0 to 10 scale (0 no effect, 10 complete control)

How did the “Giant foxtail plant response rating” value [1, 17] turn out when `CC(C)N(C(=O)n1oc(=O)n(CC2CCC2)c1=O)c1ccc(Cl)cc1` [Compound 550] was run?
Its value is 2.

And the “Giant foxtail plant response rating” value [1, 18]?
Its value is 6.

What about the “Plant response rating, Giant foxtail” value [1, 19] of the same compound?
The value was 9.

And the “Giant foxtail plant response rating” value [1, 20]?
The value was 7.

And the “Giant foxtail plant response rating” value [1, 21]?
Its value is 9.

And the “Giant foxtail plant response rating (0 to 10 scale)” value ([1]; Preemergence, Rate 250 g/ha)?
The value was 10.

And the “Giant foxtail plant response rating” value [1, 22]?
Its value is 10.

And the “Plant response rating, Giant foxtail” value [1, 23]?
Its value is 9.

What about the “Plant response rating, S. Flatsedge (0 to 10 scale, 0 is no effect, 10 is complete control)” value [2, 24] of the same compound?
The value was 0.

What about the “S. Flatsedge plant response rating (0 to 10 scale, 0 is no effect, 10 is complete control)” value [2, 25] of the same compound?
The value was 0.

And the “S. Flatsedge plant response rating” value [2, 26]?
Its value is 0.

What about the “S. Flatsedge plant response rating” value [2, 27] of the same compound?
Its value is 0.

And the “Wild oats plant response rating” value [3, 17]?
Its value is 0.

And the “Wild oats plant response rating” value [3, 18]?
Its value is 2.

What about the “Plant response rating, Wild oats” value [3, 19] of the same compound?
Its value is 3.

What about the “Wild oats plant response rating” value [3, 20] of the same compound?
Its value is 0.

And the “Wild oats plant response rating” value [3, 21]?
Its value is 0.

And the “Wild oats plant response rating (0 to 10 scale)” value ([3]; Preemergence, Rate 250 g/ha)?
The value was 2.

What about the “Wild oats plant response rating” value [3, 22] of the same compound?
The value was 8.

And the “Plant response rating, Wild oats” value [3, 23]?
Its value is 4.

What about the “Corn plant response rating” value [4, 17] of the same compound?
The value was 0.

And the “Corn plant response rating” value [4, 18]?
The value was 0.

And the “Plant response rating, Corn” value [4, 19]?
The value was 2.

And the “Corn plant response rating” value [4, 20]?
Its value is 0.

What about the “Corn plant response rating” value [4, 21] of the same compound?
The value was 0.

And the “Corn plant response rating (0 to 10 scale)” value ([4]; Preemergence, Rate 250 g/ha)?
The value was 0.

And the “Corn plant response rating” value [4, 22]?
The value was 0.

And the “Plant response rating, Corn” value [4, 23]?
The value was 0.

And the “Plant response rating, Barnyardgrass (0 to 10 scale, 0 is no effect, 10 is complete control)” value [5, 24]?
Its value is 0.

What about the “Barnyardgrass plant response rating (0 to 10 scale, 0 is no effect, 10 is complete control)” value [5, 25] of the same compound?
Its value is 0.

What about the “Barnyardgrass plant response rating” value [5, 26] of the same compound?
Its value is 0.

And the “Barnyardgrass plant response rating” value [5, 27]?
Its value is 0.

And the “Velvetleaf plant response rating” value [6, 17]?
Its value is 0.

What about the “Velvetleaf plant response rating” value [6, 18] of the same compound?
The value was 0.

And the “Plant response rating, Velvetleaf” value [6, 19]?
Its value is 2.

What about the “Velvetleaf plant response rating” value [6, 20] of the same compound?
The value was 0.

And the “Velvetleaf plant response rating” value [6, 21]?
Its value is 0.

And the “Velvetleaf plant response rating (0 to 10 scale)” value ([6]; Preemergence, Rate 250 g/ha)?
Its value is 2.

What about the “Velvetleaf plant response rating” value [6, 22] of the same compound?
Its value is 4.

What about the “Plant response rating, Velvetleaf” value [6, 23] of the same compound?
The value was 0.

What about the “Nutsedge plant response rating” value [7, 17] of the same compound?
Its value is 0.

And the “Nutsedge plant response rating” value [7, 18]?
Its value is 0.

And the “Plant response rating, Nutsedge” value [7, 19]?
The value was 2.

What about the “Nutsedge plant response rating” value [7, 20] of the same compound?
The value was 0.

What about the “Nutsedge plant response rating” value [7, 21] of the same compound?
The value was 0.

And the “Nutsedge plant response rating (0 to 10 scale)” value ([7]; Preemergence, Rate 250 g/ha)?
Its value is 0.

And the “Nutsedge plant response rating” value [7, 22]?
Its value is 6.

And the “Plant response rating, Nutsedge” value [7, 23]?
Its value is 0.

What about the “Plant response rating, Ducksalad (0 to 10 scale, 0 is no effect, 10 is complete control)” value [8, 24] of the same compound?
Its value is 0.

And the “Ducksalad plant response rating (0 to 10 scale, 0 is no effect, 10 is complete control)” value [8, 25]?
The value was 0.

And the “Ducksalad plant response rating” value [8, 26]?
Its value is 0.

What about the “Ducksalad plant response rating” value [8, 27] of the same compound?
The value was 0.

What about the “Blackgrass plant response rating” value [9, 17] of the same compound?
The value was 0.

What about the “Blackgrass plant response rating” value [9, 18] of the same compound?
Its value is 0.

What about the “Plant response rating, Blackgrass” value [9, 19] of the same compound?
Its value is 2.

What about the “Blackgrass plant response rating” value [9, 20] of the same compound?
Its value is 0.

And the “Blackgrass plant response rating” value [9, 21]?
The value was 2.

What about the “Blackgrass plant response rating (0 to 10 scale)” value ([9]; Preemergence, Rate 250 g/ha) of the same compound?
The value was 7.

What about the “Blackgrass plant response rating” value [9, 22] of the same compound?
The value was 9.

What about the “Plant response rating, Blackgrass” value [9, 23] of the same compound?
The value was 2.

And the “Plant response rating, Rice (0 to 10 scale, 0 is no effect, 10 is complete control)” value [10, 24]?
The value was 0.

And the “Rice plant response rating (0 to 10 scale, 0 is no effect, 10 is complete control)” value [10, 25]?
The value was 0.

And the “Rice plant response rating” value [10, 26]?
Its value is 0.

What about the “Rice plant response rating” value [10, 27] of the same compound?
The value was 0.

What about the “B. signalgrass plant response rating” value [11, 17] of the same compound?
Its value is 0.

And the “B. signalgrass plant response rating” value [11, 18]?
Its value is 0.

What about the “Plant response rating, B. signalgrass” value [11, 19] of the same compound?
Its value is 2.

And the “B. signalgrass plant response rating” value [11, 20]?
The value was 6.

And the “B. signalgrass plant response rating” value [11, 21]?
Its value is 9.

And the “B. signalgrass plant response rating (0 to 10 scale, 0 is no effect, 10 is complete control)” value ([11]; Preemergence, Rate 250 g/ha)?
The value was 9.

What about the “B. signalgrass plant response rating” value [11, 22] of the same compound?
Its value is 10.

What about the “Plant response rating, B. signalgrass” value [11, 23] of the same compound?
The value was 2.

And the “Crabgrass plant response rating” value [12, 18]?
Its value is 7.

And the “Crabgrass plant response rating” value [12, 20]?
Its value is 4.

What about the “Crabgrass plant response rating” value [12, 21] of the same compound?
Its value is 10.

And the “Crabgrass plant response rating (0 to 10 scale)” value ([12]; Preemergence, Rate 250 g/ha)?
The value was 10.

And the “Crabgrass plant response rating” value [12, 22]?
The value was 10.

And the “Plant response rating, Crabgrass” value [12, 23]?
The value was 10.

What about the “Sugarbeets plant response rating” value [13, 17] of the same compound?
The value was 0.

What about the “Sugarbeets plant response rating” value [13, 18] of the same compound?
Its value is 0.

What about the “Plant response rating, Sugarbeets” value [13, 19] of the same compound?
Its value is 5.

And the “Sugarbeets plant response rating” value [13, 20]?
Its value is 0.

What about the “Sugarbeets plant response rating” value [13, 21] of the same compound?
Its value is 0.

And the “Sugarbeets plant response rating (0 to 10 scale)” value ([13]; Preemergence, Rate 250 g/ha)?
The value was 5.

And the “Sugarbeets plant response rating” value [13, 22]?
The value was 8.

And the “Plant response rating, Sugarbeets” value [13, 23]?
The value was 2.

And the “Rape plant response rating” value [14, 17]?
Its value is 0.

And the “Rape plant response rating” value [14, 18]?
Its value is 3.

What about the “Plant response rating, Rape” value [14, 19] of the same compound?
The value was 3.

And the “Rape plant response rating” value [14, 20]?
Its value is 0.

What about the “Rape plant response rating” value [14, 21] of the same compound?
The value was 0.

What about the “Rape plant response rating (0 to 10 scale)” value ([14]; Preemergence, Rate 250 g/ha) of the same compound?
The value was 6.

What about the “Rape plant response rating” value [14, 22] of the same compound?
Its value is 9.

And the “Wheat plant response rating” value [15, 17]?
Its value is 0.

And the “Wheat plant response rating” value [15, 18]?
Its value is 0.

And the “Plant response rating, Wheat” value [15, 19]?
Its value is 0.

And the “Wheat plant response rating” value [15, 20]?
The value was 0.

What about the “Wheat plant response rating” value [15, 21] of the same compound?
Its value is 2.

And the “Wheat plant response rating (0 to 10 scale)” value ([15]; Preemergence, Rate 250 g/ha)?
Its value is 2.

What about the “Wheat plant response rating” value [15, 22] of the same compound?
The value was 2.

What about the “Plant response rating, Wheat” value [15, 23] of the same compound?
Its value is 0.

And the “Bedstraw plant response rating” value [16, 17]?
The value was 0.

And the “Bedstraw plant response rating” value [16, 18]?
Its value is 0.

What about the “Plant response rating, Bedstraw” value [16, 19] of the same compound?
Its value is 0.

What about the “Bedstraw plant response rating” value [16, 20] of the same compound?
Its value is 0.

And the “Bedstraw plant response rating” value [16, 21]?
The value was 0.

What about the “Bedstraw plant response rating (0 to 10 scale)” value ([16]; Preemergence, Rate 250 g/ha) of the same compound?
Its value is 0.

What about the “Bedstraw plant response rating” value [16, 22] of the same compound?
Its value is 3.

What about the “Plant response rating, Bedstraw” value [16, 23] of the same compound?
Its value is 0.
